The values that follow come from ChEMBL document CHEMBL1145498, “A systematic interaction map of validated kinase inhibitors with Ser/Thr kinases” (Proc Natl Acad Sci U S A, 2007).

The ΔTm is the change in melting temperature against a reference sample.

SMILES strings stand for the structures.

Assay [1] has as its target T1, Calcium/calmodulin-dependent protein kinase type IV (Homo sapiens) (UniProt Q16566).
T1 sequence (whole entry): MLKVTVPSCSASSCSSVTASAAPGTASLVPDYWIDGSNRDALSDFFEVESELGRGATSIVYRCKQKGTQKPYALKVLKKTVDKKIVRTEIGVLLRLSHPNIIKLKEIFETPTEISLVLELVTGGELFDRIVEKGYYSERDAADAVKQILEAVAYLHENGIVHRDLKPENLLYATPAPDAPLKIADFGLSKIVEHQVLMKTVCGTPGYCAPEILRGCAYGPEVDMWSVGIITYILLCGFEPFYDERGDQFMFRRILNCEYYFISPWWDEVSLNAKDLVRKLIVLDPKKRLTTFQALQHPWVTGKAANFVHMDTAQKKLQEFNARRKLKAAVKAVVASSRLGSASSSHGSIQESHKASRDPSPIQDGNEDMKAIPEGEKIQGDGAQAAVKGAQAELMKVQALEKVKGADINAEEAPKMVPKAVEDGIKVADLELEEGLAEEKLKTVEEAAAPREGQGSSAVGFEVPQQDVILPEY

Assay [2] has as its target Calcium/calmodulin-dependent protein kinase kinase 2 (Homo sapiens, UniProt Q96RR4).
Assay [3] deals with Casein kinase I isoform gamma-1 (Homo sapiens) (UniProt Q9HCP0).
The target in assay [4] is T2, Myotonin-protein kinase (Homo sapiens) (UniProt Q09013).
T2 sequence (whole entry): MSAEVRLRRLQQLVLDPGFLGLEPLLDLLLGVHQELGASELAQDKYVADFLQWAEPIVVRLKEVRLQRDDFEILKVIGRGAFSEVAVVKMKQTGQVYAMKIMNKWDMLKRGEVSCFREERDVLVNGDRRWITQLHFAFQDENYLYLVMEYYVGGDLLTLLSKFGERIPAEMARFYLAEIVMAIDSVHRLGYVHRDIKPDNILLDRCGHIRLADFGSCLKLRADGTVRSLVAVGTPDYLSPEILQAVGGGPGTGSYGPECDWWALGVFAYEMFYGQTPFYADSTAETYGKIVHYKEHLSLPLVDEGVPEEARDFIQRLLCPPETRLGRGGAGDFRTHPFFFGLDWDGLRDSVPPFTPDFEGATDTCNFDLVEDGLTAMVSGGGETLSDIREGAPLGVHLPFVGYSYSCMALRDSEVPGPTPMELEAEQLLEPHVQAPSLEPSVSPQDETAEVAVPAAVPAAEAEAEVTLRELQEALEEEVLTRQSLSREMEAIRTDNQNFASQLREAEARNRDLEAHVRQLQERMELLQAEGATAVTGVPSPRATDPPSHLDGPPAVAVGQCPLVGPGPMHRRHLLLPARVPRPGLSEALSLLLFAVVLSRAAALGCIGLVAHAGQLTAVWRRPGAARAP

Assay [5] addresses T3, Mitogen-activated protein kinase kinase kinase 5 (Homo sapiens) (UniProt Q99683).
T3 sequence (whole entry): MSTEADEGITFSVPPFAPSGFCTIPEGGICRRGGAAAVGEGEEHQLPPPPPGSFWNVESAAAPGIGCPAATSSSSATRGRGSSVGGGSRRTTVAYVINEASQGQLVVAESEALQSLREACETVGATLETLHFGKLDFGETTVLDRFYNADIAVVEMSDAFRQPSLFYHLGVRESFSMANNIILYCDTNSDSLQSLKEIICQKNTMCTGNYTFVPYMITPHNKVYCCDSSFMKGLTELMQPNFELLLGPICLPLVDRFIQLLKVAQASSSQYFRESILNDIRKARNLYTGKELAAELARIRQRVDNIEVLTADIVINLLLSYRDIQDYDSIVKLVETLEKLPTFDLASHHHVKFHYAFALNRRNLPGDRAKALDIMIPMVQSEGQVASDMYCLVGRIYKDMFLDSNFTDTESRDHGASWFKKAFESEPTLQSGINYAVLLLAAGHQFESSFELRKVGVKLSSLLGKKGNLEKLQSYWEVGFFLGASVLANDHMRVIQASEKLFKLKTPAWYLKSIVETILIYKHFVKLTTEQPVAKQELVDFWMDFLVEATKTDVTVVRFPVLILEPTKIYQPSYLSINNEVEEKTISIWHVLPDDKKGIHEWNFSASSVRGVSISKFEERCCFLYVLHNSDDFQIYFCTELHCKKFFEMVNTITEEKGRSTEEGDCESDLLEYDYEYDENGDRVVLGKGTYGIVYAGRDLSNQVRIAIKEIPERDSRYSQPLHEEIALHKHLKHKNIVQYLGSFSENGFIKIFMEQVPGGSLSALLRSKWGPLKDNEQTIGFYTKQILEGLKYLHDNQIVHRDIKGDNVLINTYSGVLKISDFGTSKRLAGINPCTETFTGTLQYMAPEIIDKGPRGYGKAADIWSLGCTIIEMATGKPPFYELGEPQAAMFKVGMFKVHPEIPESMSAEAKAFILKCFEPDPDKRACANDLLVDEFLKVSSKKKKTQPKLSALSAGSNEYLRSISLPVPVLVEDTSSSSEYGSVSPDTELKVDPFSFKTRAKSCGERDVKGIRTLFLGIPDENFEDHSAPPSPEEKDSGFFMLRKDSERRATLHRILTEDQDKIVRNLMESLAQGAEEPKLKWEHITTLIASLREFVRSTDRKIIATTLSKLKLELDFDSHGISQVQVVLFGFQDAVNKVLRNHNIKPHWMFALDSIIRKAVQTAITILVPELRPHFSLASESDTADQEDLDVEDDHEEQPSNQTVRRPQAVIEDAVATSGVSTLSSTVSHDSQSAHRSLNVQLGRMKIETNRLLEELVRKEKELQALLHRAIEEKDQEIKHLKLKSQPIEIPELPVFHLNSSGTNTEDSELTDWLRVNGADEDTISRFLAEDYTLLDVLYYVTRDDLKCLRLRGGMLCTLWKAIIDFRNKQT

In assay [6] the target is Serine/threonine-protein kinase 26 (Homo sapiens) (UniProt Q9P289).
In assay [7] the target is Serine/threonine-protein kinase PAK 4 (Homo sapiens) (UniProt O96013).
Assay [8] concerns the target Cyclin-dependent kinase 16 (Homo sapiens) (UniProt Q00536).
The target in assay [9] is Serine/threonine-protein kinase pim-3 (Homo sapiens) (UniProt Q86V86).
Assay [10] concerns the target Ribosomal protein S6 kinase alpha-3 (Homo sapiens) (UniProt P51812).
Assay [11] deals with TRAF2 and NCK-interacting protein kinase (Homo sapiens) (UniProt Q9UKE5).
TRAF2 and NCK-interacting protein kinase (Homo sapiens), sequence (Q9UKE5 whole entry, looked up): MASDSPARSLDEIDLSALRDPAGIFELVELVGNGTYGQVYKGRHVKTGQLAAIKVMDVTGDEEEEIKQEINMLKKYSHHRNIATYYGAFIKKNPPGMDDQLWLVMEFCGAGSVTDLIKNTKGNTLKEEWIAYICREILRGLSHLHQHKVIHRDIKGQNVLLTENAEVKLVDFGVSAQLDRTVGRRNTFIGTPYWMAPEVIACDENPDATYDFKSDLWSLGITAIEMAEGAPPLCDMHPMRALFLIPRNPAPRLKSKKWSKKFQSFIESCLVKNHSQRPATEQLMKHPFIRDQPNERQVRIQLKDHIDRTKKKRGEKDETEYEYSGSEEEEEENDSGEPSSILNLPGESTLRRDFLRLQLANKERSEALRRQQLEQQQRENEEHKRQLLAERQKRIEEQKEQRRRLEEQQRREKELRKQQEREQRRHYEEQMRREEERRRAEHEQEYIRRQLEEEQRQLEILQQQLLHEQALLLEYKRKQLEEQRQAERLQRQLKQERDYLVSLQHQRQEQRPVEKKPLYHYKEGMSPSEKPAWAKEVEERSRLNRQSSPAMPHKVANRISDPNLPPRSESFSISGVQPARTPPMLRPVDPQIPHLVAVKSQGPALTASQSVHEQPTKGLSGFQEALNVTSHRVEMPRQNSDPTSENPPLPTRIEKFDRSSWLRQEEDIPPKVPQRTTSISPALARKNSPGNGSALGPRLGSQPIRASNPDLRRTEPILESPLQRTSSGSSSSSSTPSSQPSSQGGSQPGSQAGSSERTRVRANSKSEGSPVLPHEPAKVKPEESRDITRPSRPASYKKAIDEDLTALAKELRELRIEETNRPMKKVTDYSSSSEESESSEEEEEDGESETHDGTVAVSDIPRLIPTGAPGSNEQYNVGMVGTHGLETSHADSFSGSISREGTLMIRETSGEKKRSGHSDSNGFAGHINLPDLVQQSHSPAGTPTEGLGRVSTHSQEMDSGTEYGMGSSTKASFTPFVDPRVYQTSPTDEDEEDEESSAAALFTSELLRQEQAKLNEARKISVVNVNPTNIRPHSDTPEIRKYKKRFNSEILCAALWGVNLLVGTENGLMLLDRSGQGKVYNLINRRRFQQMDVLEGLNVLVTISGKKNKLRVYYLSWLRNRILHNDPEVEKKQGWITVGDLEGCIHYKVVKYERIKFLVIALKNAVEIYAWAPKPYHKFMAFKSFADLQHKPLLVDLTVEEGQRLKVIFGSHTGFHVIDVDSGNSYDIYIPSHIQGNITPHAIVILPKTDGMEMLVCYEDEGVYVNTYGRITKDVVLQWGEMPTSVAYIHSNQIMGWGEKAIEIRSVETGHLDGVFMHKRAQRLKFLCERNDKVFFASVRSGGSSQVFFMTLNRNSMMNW

Serine/threonine-protein kinase PAK 4 (Homo sapiens), sequence (O96013 whole entry, looked up): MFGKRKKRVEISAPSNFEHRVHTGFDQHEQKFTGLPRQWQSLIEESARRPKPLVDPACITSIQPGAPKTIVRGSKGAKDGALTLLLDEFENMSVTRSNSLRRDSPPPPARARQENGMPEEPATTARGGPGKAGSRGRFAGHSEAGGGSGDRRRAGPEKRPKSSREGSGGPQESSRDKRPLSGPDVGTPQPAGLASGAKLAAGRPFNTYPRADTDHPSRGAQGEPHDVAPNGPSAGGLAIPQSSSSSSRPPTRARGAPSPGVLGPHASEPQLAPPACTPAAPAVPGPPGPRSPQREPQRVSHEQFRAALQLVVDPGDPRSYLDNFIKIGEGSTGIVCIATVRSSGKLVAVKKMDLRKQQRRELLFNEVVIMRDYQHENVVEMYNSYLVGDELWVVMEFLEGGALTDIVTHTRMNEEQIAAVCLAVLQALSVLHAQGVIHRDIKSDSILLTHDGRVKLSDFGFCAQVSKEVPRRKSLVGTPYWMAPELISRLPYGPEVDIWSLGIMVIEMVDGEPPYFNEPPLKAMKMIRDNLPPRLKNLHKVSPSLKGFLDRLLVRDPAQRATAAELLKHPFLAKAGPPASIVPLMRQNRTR
Serine/threonine-protein kinase 26 (Homo sapiens), sequence (Q9P289 2-416 limits assumed): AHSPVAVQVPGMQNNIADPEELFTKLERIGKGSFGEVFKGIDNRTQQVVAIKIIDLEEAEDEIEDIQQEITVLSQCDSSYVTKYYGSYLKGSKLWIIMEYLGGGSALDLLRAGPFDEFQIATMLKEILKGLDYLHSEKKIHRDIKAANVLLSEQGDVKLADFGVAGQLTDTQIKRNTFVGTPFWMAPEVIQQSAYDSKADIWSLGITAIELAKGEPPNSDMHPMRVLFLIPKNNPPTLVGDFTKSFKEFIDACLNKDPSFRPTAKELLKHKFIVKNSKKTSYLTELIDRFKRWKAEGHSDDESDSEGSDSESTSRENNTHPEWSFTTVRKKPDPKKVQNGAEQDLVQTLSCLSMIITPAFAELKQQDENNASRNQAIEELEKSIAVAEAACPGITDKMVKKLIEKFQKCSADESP
Cyclin-dependent kinase 16 (Homo sapiens), sequence (Q00536 whole entry): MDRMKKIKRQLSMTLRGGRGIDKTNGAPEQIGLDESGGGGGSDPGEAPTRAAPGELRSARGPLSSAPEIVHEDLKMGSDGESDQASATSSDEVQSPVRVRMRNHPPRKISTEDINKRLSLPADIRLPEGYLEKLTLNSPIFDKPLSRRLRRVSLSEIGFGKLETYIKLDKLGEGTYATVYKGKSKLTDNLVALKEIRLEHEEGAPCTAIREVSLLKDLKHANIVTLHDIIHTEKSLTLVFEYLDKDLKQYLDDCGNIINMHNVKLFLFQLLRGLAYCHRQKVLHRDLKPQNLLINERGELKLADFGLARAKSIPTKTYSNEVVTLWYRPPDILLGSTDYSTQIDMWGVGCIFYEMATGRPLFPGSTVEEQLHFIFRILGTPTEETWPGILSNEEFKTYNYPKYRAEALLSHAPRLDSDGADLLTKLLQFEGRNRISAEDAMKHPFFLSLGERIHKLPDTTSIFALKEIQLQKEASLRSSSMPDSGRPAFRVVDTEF
Ribosomal protein S6 kinase alpha-3 (Homo sapiens), sequence (P51812 whole entry): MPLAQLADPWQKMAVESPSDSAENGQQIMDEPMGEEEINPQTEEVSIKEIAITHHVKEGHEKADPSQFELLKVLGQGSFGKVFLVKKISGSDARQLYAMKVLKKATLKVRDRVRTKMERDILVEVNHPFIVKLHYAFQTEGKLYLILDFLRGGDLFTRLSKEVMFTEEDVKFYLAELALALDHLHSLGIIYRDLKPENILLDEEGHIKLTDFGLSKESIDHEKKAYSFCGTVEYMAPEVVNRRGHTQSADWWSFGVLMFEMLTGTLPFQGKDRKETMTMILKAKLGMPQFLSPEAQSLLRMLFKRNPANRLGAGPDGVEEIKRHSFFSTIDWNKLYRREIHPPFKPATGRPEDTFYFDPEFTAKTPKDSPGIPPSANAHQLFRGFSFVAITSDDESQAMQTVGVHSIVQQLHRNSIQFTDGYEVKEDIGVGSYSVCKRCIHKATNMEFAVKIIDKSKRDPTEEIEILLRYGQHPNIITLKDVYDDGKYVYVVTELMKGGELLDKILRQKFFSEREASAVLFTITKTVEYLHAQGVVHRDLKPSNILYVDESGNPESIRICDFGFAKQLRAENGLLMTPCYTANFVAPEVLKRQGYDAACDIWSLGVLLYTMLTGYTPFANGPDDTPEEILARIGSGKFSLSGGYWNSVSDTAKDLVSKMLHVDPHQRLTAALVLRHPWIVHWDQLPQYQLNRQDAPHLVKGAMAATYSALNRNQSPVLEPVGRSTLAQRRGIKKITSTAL
Casein kinase I isoform gamma-1 (Homo sapiens), sequence (Q9HCP0 whole entry, looked up, canonical isoform): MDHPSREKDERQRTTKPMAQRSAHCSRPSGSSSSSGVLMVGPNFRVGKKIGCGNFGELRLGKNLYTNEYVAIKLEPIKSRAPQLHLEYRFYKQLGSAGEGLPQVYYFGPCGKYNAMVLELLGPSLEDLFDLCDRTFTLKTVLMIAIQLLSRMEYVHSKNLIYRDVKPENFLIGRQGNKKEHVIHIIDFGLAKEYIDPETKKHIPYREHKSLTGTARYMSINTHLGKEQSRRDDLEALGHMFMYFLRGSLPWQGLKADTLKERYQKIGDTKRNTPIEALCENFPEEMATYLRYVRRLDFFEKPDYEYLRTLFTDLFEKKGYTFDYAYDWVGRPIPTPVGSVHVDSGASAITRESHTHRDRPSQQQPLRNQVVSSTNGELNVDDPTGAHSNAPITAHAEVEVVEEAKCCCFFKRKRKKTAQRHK
Calcium/calmodulin-dependent protein kinase kinase 2, sequence (Q96RR4 2-588 limits assumed): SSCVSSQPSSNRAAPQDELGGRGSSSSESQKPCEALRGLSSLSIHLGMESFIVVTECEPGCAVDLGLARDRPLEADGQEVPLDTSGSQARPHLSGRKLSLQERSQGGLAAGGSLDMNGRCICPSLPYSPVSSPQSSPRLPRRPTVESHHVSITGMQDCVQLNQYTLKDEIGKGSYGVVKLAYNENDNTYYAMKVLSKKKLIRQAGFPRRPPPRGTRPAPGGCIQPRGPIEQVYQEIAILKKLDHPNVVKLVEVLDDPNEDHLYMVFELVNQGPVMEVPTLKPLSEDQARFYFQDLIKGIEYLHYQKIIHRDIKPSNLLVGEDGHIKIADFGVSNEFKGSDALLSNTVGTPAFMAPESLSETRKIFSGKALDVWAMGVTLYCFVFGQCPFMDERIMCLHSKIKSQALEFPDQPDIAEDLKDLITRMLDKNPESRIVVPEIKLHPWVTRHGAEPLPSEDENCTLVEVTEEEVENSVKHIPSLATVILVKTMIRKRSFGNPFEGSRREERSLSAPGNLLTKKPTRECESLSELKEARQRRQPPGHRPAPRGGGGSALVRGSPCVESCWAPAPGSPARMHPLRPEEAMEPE

In the case of `CCCCc1c(-c2ccc(O)cc2)[nH]c2nccnc12` [ALOISINE A], the ΔTm in [1] is 0.4 °C; in [2], 1.8 °C; in assay [3], 3 °C; in [4], 6.1 °C; in [5], 0.4 °C; in [6], 1.1 °C. The ΔTm in assay [7] was 2.6 °C; in assay [8], -0.5 °C; in [9] it was 7.7 °C; in assay [10], 1.9 °C; in [11], 0 °C.
For `COc1ccc(CNc2nc(N(CCO)CCO)nc3c2ncn3C(C)C)cc1`, the ΔTm was 0.4 °C in [1]; 1.2 °C in assay [2]; 1.8 °C in assay [3]; -0.1 °C in [4]; 2 °C in [5]; 0.8 °C in assay [6]. Further, the ΔTm in assay [7] was 1.7 °C; in assay [8] it was -0.3 °C; in assay [9], 0.2 °C; in assay [10] it was 1.7 °C; in assay [11], 0.5 °C.
With `O=C1Nc2ccccc2/C1=C\c1ccc[nH]1`, the ΔTm in assay [1] is 0.6 °C; in assay [2], 4.7 °C; in assay [3] it was 1.4 °C; in assay [4] it was -0.6 °C; in [5], 5.2 °C; in assay [6], 3.5 °C. Moreover, the ΔTm was 1.2 °C in assay [7], 1.7 °C in assay [8], 2.1 °C in assay [9] and 6.2 °C in assay [11].
Take `CN1CCc2[nH]c(=S)c(C#N)c(-c3cccs3)c2C1`: the ΔTm in [1] is 1.9 °C; in assay [2], 3.8 °C; in [3], 0.8 °C; in assay [4], 7.8 °C; in assay [5] it was 4.7 °C; in assay [6], 1 °C. Also, the ΔTm in assay [7] was -0.4 °C; in assay [8], 4.1 °C; in assay [9] it was 4.2 °C; in [10], 0.9 °C.
Take `CC[C@H](CO)Nc1nc(NCc2ccccc2)c2ncn(C(C)C)c2n1` [SELICICLIB]: the ΔTm in assay [1] was 0.2 °C; in [2] it was 0.3 °C; in [4] it was -0.7 °C; in [5], 1 °C; in assay [6], 0.6 °C; in assay [7] it was 1.7 °C. Besides, the results for the shift in melting temperature (ΔTm) in assay [9], in assay [10] and in assay [11] were 0.5 °C, 1.4 °C and 0.4 °C, respectively.
As to `Oc1cc(O)cc(/C=C/c2ccc(O)c(O)c2)c1` [PICEATANNOL], the ΔTm in [1] was 0.2 °C; in assay [2], 0.5 °C; in assay [3] it was 0 °C; in [4], -0.5 °C; in assay [5], -0.6 °C; in assay [6] it was 0.9 °C. For the same molecule, the shift in melting temperature (ΔTm) in [7] came out at 1.5 °C; in assay [8], 0 °C; in assay [9] it was 3.5 °C; in assay [11], 0.4 °C.
In the case of `COc1ccc(Cl)cc1NC(=O)Nc1cc(C)nc2ccccc12`, the ΔTm in assay [1] was 0.6 °C; in assay [2] it was 0.4 °C; in assay [3], 1.4 °C; in [4], 0.1 °C; in assay [5], 2.2 °C; in assay [6] it was 1.1 °C. Also, the ΔTm in assay [7] is -0.6 °C; in assay [8], 0.5 °C; in assay [9], 0.8 °C; in [10], 0.4 °C.
As for `O=C1Cc2c([nH]c3ccc(Br)cc23)-c2ccccc2N1` [KENPAULLONE], the ΔTm in [1] worked out at 0.3 °C; in assay [2] it was 2 °C; in [3], 0.3 °C; in assay [4], 5.8 °C; in assay [5] it was 0.8 °C; in assay [6], 1.4 °C. Further, the shift in melting temperature (ΔTm) in assay [7] was determined as 3.4 °C; in [8], 2 °C; in [9], 4.6 °C; in assay [11] it was 6.7 °C.
Regarding `COc1nccc(-c2c(-c3ccc(F)cc3)ncn2[C@H]2CC[C@H](O)CC2)n1`, the ΔTm in assay [1] was 0.2 °C; in assay [2], -0.6 °C; in [3], 0.9 °C; in [6], -1.4 °C; in [7] it was 0.7 °C; in assay [8], 0.6 °C. Also, the ΔTm in assay [9] was -0.2 °C; in [10], 0.2 °C; in [11], -0.5 °C.
As for `CN(C)C[C@@H]1CCn2cc(c3ccccc32)C2=C(C(=O)NC2=O)c2cn(c3ccccc23)CCO1` [RUBOXISTAURIN], the ΔTm was 2.9 °C in [1]; 1.6 °C in assay [2]; 0.5 °C in assay [3]; 5.3 °C in assay [4]; 0.1 °C in assay [5]; -2 °C in [6]. The ΔTm in assay [9] is 5.8 °C; in assay [10], 0.9 °C; in assay [11] it was -0.3 °C.
With `COc1ccc2c(c1)/C(=C/c1cnc[nH]1)C(=O)N2` [SU-9516], the ΔTm in [1] worked out at 1.5 °C; in assay [2], 2.8 °C; in assay [3] it was 1 °C; in [4], 0.8 °C; in assay [5], 5.4 °C; in assay [6], 4.2 °C. Besides, the ΔTm came to 1.8 °C in assay [7], 3.3 °C in assay [8], 2.3 °C in assay [9] and 5.7 °C in [11].
In the case of `CC(C)[C@H](CO)Nc1nc(Nc2cc(N)cc(Cl)c2)c2ncn(C(C)C)c2n1` [AMINOPURVALANOL], the ΔTm was determined as 4.2 °C in assay [1]; 3.3 °C in assay [2]; 2 °C in assay [3]; 2 °C in [4]; 2.4 °C in assay [5]; 4.3 °C in assay [6]. For the same molecule, the ΔTm is -0.1 °C in [7], 8.1 °C in [8], 6.7 °C in [9] and 3.4 °C in assay [10].
